According to US10183026B2, “Method of adjuvant treatment with chlorophyllin containing therapeutic preparation including for radioprotection of normal tissues during radiation therapy and kit therefor” (priority 2016, dated 2019):

Key:
mice = experiment: Acute oral toxicity in mice; assay type: in vivo; details: up to an acute oral dose of 5 gm per Kg body weight
[1] = test system: MCF-7 human breast cancer xenograft tumors; experiment: In vivo radiosensitization of human breast cancer xenograft in SCID mice
Description: MCF-7 cells (10×10^6 in 50 μl 1×PBS and 50 μl matrigel) were injected subcutaneously in foot pad of each mouse and tumors were monitored till they developed to measurable size. Mice were then treated with 500 mg/Kg bw chlorophyllin in PBS orally for three consecutive days. After last dose administration mice were locally exposed to IR 6 Gy (at the site of tumor) and subsequently monitored for 30 days for tumor growth and survival. Measurements of tumor were taken on alternate days using digital Vernier caliper and tumor volume was recorded. At the end of 30 days tumour mass was excised for further analysis.

[2] = test system: MCF7 human breast cancer cells; experiment: γH2AX foci formation assay, MCF7; assay type: cell-based; details: 50 μM
Description: (§1) A549 cells and MCF (3×10^5 cells) were grown on the coverslip, treated with 50 μM of chlorophyllin, followed by 4 Gy radiation exposure. At different time intervals after irradiation (either 15 min or 120 min), cells were fixed with 4% paraformaldehyde, permeabilized using Triton X-100, blocked with 5% bovine serum albumin and then treated with anti-γ-H2AX antibody. Then cells were stained with FITC labeled secondary antibody and visualized using fluorescence microscope. The average number of foci per cell was calculated after counting the foci from 100 cells per group.

[3] = test system: mice exposed to whole body irradiation; experiment: Protection against whole body irradiation induced mortality (30 days survival); assay type: in vivo, BALB/c mice; details: 100 mg/kg bw, Intra peritoneal, 7.0 Gy
[4] = test system: lineage negative cells in the bone marrow; experiment: Cell cycle of lineage negative cells in the bone marrow; assay type: in vivo, mice; details: specified dose
[5] = test system: MCF7 human breast cancer cells; experiment: Clonogenic survival assay, MCF7; assay type: cell-based
Description: (§2) A549 and MCF 7 cells (2000 cells for control, 4 Gy and 5000 cells for 8 Gy treatments) were plated overnight in 6 well plates followed by treatment with indicated concentrations of chlorophyllin (0, 10, 20, 50 or 100 μM) for 2 h and exposed to indicated doses of radiation. After radiation exposure plates were incubated at 37° C. in CO2 incubator for 12 days for the development of colonies. After the colony formation, the plates were washed with PBS, fixed with methanol and stained with crystal violet. The colonies with more than 50 cells were counted and the survival fraction was calculated using the following formula: Survival fraction=No. of colonies/[no. of cells plated X (plating efficiency/100)], where plating efficiency is the ratio between the number of colonies developed to the number of cells plated in control.

G-CSF = experiment: Serum levels of G-CSF as a function of time; assay type: in vivo, mice; details: 500 mg/Kg bw orally for 3 days; 2, 24, 48 and 72 hrs
Description: (§3) CHL formulation dose and duration: 500 mg/Kg bw given orally for 3 consecutive days.

[6] = Pharmacokinetic study, serum half-life; assay type: in vivo; details: mice
MCF-7 cells = experiment: Reactive oxygen species by DCFDA, DHE, DHR123 fluorescence; assay type: cell-based, human; details: 50 μM
Description: MCF-7 cells (1×10^5) were stained with H2DCF-DA (10 μM) Ex./Em. 485/535 nm or dihydroethidium (DHE 5 μM) 518/605 nm or DHR 123 (5 μM) 500/536 nm for 20 min and incubated with chlorophyllin (50 μM) or vehicle for indicated time intervals at 37° C. Cells were exposed to 4 Gy IR and fluorescence was monitored at respective wavelengths using BioTek Microplate Reader (Synergy).

[7] = test system: MCF7 human breast cancer cells; experiment: Cancer stem cell frequency (Aldefluor, CD24-CD44+, Hoechst side population), MCF7; assay type: cell-based; details: 4 Gy or 8 Gy
Description: (§4) For cancer stem cell analysis, by Aldefluor assay, MCF7 cells and MDA MB231 cells were stained with either Aldefluor reagent or PE-[…], APC-Cy7CD44, antibodies for 20 min on ice. The cells were washed and fixed with 1% paraformaldehyde for 20 min and stained with Hoechst 33342 (10 mg/ml) for 4 h. Isotype controls stained cells, single antibody stained cells, and fluorescence minus one (FMO) controls were used for compensation and gating. The cells were acquired on a flow Cytometer (Partec Cyflow) and analysed using FlowJo 7.6.5 (Treestar, Inc., Ashland) software.

bone marrow cells = experiment: Colony forming units in bone marrow cells of whole body irradiated mice; assay type: cell-based; details: bone marrow cells in vitro
rats = experiment: Acute oral toxicity in rats; assay type: in vivo; details: up to an acute oral dose of 5 gm per Kg body weight
[8] = test system: MCF-7 human breast cancer cells; experiment: Mitotic catastrophe, Hoechst stained nuclei; assay type: cell-based
Description: MCF-7 cells (3×10^5 cells) were grown on the coverslip, treated with indicated concentrations of chlorophyllin (0, 10, 20, 50 or 100 μM) and exposed for 48 hrs to indicated doses of radiation (4 Gy and 8 Gy). After irradiation cells were fixed and stained with Hoechst and observed under fluorescence microscope. Cells with mitotic abnormalities have been counted for each group.

bone marrow cellularity = experiment: Bone marrow cellularity after 6 Gy whole body radiation; assay type: in vivo, BALB/c mice; details: 500 mg/Kg bw orally for 3 consecutive days
Description: (§5) Experimental animals 8- to 9 weeks-old inbred BALB/c male mice, weighing approximately 20-25 g, were treated with CHL formulation at the dose of 500 mg/Kg bw given orally for 3 consecutive days followed by whole body irradiation [using a 60Co γ-irradiator at a dose rate of 1 Gy/min (BhabhatronI II, Panacea, India)] of 7.5 Gy in one group and 6 Gy radiation to another group. Treated groups were compared to untreated control and mice treated only with CHL formulation at the given dose and mice with whole body irradiation without the CHL formulation.

[9] = test system: mice exposed to whole body irradiation; experiment: Protection against whole body irradiation induced mortality (30 days survival); assay type: in vivo, BALB/c mice; details: for Extent of protection offered to mice against radiation induced mortality: Oral; for protection against radiation induced mortality as monitored by 30 days survival: 100-1000 mg/kg b.w. (preferred 180-500) orally, table of expected outcome
Description: as §5
To assess the in vivo radio protective efficacy of chlorophyllin, mice were given three consecutive oral administrations of: CHL formulation 1 containing chlorophyllin (500-mg/kg bw) and penicillin (10-50 mg/kg+ streptomycin 20-80 mg/kgbw) or CHL formulation 2 containing chlorophyllin (500 mg/kg bw) and tetracycline (20-80 mg/kgbw) at 24 h interval and were exposed to 8 Gy dose of whole body irradiation (which is used as a supplement to surgery during radiotherapy of cancer patients) 2 h after the last injection. Formulation 3 is chlorophyllin alone given at a dose of 500 mg/kg bw for three consecutive days with a gap of 24 h between each dose.
Trials were conducted where chlorophyllin formulation ranging from 90 mg/kg bw to 2000 mg/kg body weight were administered to mice by oral gavage for three to four consecutive days at 24 h interval between doses. Alternatively, chlorophyllin was administered by intraperitoneal route (100 mg/kg body weight) for three consecutive days at 24 h interval. The mice were exposed to different doses of whole body irradiation (7.0 Gy, 7.5 Gy or 8 Gy) 2 h after last dose of chlorophyllin. The mice were monitored for changes in body weight and survival up to 30 days after WBI.

[10] = test system: hematopoietic stem cells in the bone marrow; experiment: Hoechst side population assay of bone marrow; assay type: in vivo, BALB/c mice; details: 500 mg/Kg bw orally for 3 consecutive days
Description: 8- to 9 weeks-old inbred BALB/c male mice, weighing approximately 20-25 g, were grouped into untreated control and CHL treated groups.
as §3
Side population analysis: The femur bones the above mentioned mice were dissected and the marrow was flushed out into cold Iscove's Modified Dulbecco's Medium (IMDM), 2% FBS using a 21-gauge needle. Nucleated cells were counted using Hemocytometer and trypan blue dye exclusion. Three million cells from each mouse were resuspended in pre-warmed (37° C.) DMEM without phenol red. Hoechst 33342 ([…]) was added and cells were incubated at 37° C. for 90 min with intermittent shaking. At the end of incubation, cells were washed with DMEM without phenol red and kept on ice and acquired on a flow cytometer within 2 h. Verapamil (100 μM concentration) treated bone marrow cells were used to identify the Hoechst side population in this assay.
Verapamil dose: 100 μM final concentration

[11] = test system: A549 human lung cancer cells; experiment: Clonogenic survival assay, A549; assay type: cell-based
Description: as §2

normal lung epithelia = experiment: Gamma radiation (4 Gy)-induced injury to lung epithelial cells (cellular atypia); assay type: in vivo
Gr-1+ granulocytes = experiment: Frequency of Gr-1+ granulocytes in bone marrow and blood; assay type: in vivo, mice
Description: Percent granulocytes are a biological marker for efficacy of chlorophyllin as a radioprotector in vivo. […] This is the preferred dose range. Although percentage of granulocytes increases at doses 720 and 900 mg/kg body weight, these doses are not preferred to be translated to humans. (FIG. 1E)

[12] = test system: A549 human lung cancer cells; experiment: γH2AX foci formation assay, A549; assay type: cell-based; details: 50 μM
Description: as §1

[13] = test system: MDA-MB 231 triple negative breast cancer cells; experiment: Cancer stem cell frequency (CD24-CD44+, Hoechst side population), MDA-MB231; assay type: cell-based, human; details: 50 μM, 4 Gy or 8 Gy
Description: as §4

[14] = chlorophyllin alone, 10-100 μM, 2 h

chlorophyllin
toxicity (mice): did not show any toxicity
prevention of growth of human breast cancer cells in SCID mice ([1]; 500 mg/Kg bw orally for three days + 6 Gy focal irradiation): most effective
reduction in tumor after exposure to IR as compared to control mice bearing human xenograft ([1]; 6 Gy, 100-1000 mg/kg b.w. (preferred 180-500) orally, three consecutive days, without antibiotics, table of expected outcome): (50%
tumour volume ([1]; chlorophyllin alone, 500 mg/Kg bw orally for three consecutive days): significant decrease
number of γ-H2AX foci versus radiation alone ([2]; 15 min after 4 Gy): did not have any effect
number of γ-H2AX foci versus radiation alone ([2]; 120 minutes after 4 Gy): significantly higher
Extent of protection offered to mice against radiation induced mortality ([3]; 1 day): 30%
Extent of protection offered to mice against radiation induced mortality ([3]; 4 days): 70%
cell cycle effect in lineage negative cells in the bone marrow [4]: transient cell cycle arrest
sensitization to radiation induced loss of clonogenic capacity ([5]; MCF-7, 4 Gy, CHL 10, 20, 50 or 100 μM): significantly sensitized
colony forming ability of MCF-7 cells as compared to control [5, 14]: significantly decreased
serum levels of G-CSF (G-CSF): maximum rise after 24 hrs
serum half-life [6]: 2.363 h
radiation induced increase in intracellular ROS levels (MCF-7 cells; 4 Gy IR): attenuated
background levels of free radicals (MCF-7 cells; no radiation): able to scavenge
percentage of CD24-CD44+ cancer stem cells, combination with radiation ([7]; 50 μM): more effective than radiation or chlorophyllin alone
radiation induced increase in ALDH-positive cells ([7]; 100 μM): significantly attenuated
number of colony forming units (CFUs) in bone marrow cells (bone marrow cells): significantly increased
toxicity (rats): did not show any toxicity
radiation toxicity in human breast cancer cells in vitro ([8]; 4 Gy or 8 Gy, 10-100 μM): enhanced the radiation toxicity
mitotic abnormalities (micronuclei, multinucleated giant cells) ([8]; chlorophyllin prior to 4 Gy or 8 Gy, 48 h): pattern of mitotic catastrophe
recovery from radiation induced bone marrow aplasia (bone marrow cellularity): enhanced the recovery
Extent of protection offered to mice against radiation induced mortality ([9]; 90 mg/kg bw, 3 days, 7.5 Gy): 66.6%
Extent of protection offered to mice against radiation induced mortality ([9]; 180 mg/kg bw, 3 days, 7.5 Gy): up to 100%
Extent of protection offered to mice against radiation induced mortality ([9]; 180 mg/kg bw, 3 days, 7.5 Gy, listed as Chlorophyllin): 100%
Extent of protection offered to mice against radiation induced mortality ([9]; 500 mg/kg bw, 3 days, 7.5 Gy): 70%
Extent of protection offered to mice against radiation induced mortality ([9]; 2000 mg/kg bw, 4 days, 7.0 Gy): 50%
protection against whole body irradiation induced mortality ([9]; 7.5 Gy, 500 mg/Kg bw orally for 3 consecutive days): significantly protected
protection against radiation induced mortality as monitored by 30 days survival ([9]; 7.5 Gy, three consecutive days, without antibiotics): 100%
rescue from WBI-induced mortality, 30 days survival ([9]; 8 Gy WBI, 500 mg/kg bw, three consecutive days, 80% of irradiated mice died within 17 days): rescued all the mice
protection against radiation induced mortality as monitored by 30 days survival ([9]; 8 Gy, three consecutive days, with antibiotics): 100%
Extent of protection offered to mice against radiation induced mortality ([9]; chlorophyllin 500 mg/kg bw, 3 days, 8.0 Gy): 60%
increase of hematopoietic stem cells versus control [10]: 2-3 fold
abundance of hematopoietic stem cells (Hoechst side population) ([10]; control 0.121%): 0.573%
sensitization to radiation induced loss of clonogenic capacity ([11]; A549, 4 Gy, CHL 10, 20, 50 or 100 μM): able to sensitize
colony forming ability of A549 cells as compared to control [11, 14]: significantly decreased
gamma radiation-induced injury to normal lung epithelia (cellular atypia) (normal lung epithelia): reduced
neutrophil frequency in the peripheral blood (Gr-1+ granulocytes; 500 mg/Kg bw orally for 3 days): increased neutrophil frequency
production of granulocytes (Gr-1+) in bone marrow (Gr-1+ granulocytes; 500 mg/Kg bw orally for 3 days): increase in the production of granulocytes
percent granulocytes, dose response (Gr-1+ granulocytes; doses up to 900 mg/kg body weight): increases up to 180 mg/kg and then plateaus up to 540 mg/kg body weight dose
number of γ-H2AX foci versus radiation alone ([12]; 15 min after 4 Gy): did not have any effect
number of γ-H2AX foci versus radiation alone ([12]; 120 minutes after 4 Gy): significantly higher
percentage of CD24-CD44+ cancer stem cells, combination with radiation [13]: more effective than radiation or chlorophyllin alone
